This note sets out measurements from ChEMBL document CHEMBL3991601, “The target landscape of clinical kinase drugs” (Science, 2017).

The target of assay [1] is Casein kinase I isoform gamma-1 (Homo sapiens, UniProt Q9HCP0).
In assay [2] the target is Chromodomain-helicase-DNA-binding protein 4 (Homo sapiens, UniProt Q14839).
The target of assay [3] is T1, EKC/KEOPS complex subunit TP53RK (Homo sapiens, UniProt Q96S44).
T1 sequence (Q96S44 whole entry): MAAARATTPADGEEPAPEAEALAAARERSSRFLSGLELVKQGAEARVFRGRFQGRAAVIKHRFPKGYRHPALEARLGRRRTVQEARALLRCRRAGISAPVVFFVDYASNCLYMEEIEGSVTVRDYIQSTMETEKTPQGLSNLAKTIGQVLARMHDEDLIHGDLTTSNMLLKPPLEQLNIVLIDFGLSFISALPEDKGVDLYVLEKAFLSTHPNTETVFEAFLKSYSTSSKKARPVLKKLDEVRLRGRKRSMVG

The target in assay [4] is T2, Membrane-associated tyrosine- and threonine-specific cdc2-inhibitory kinase (Homo sapiens, UniProt Q99640).
T2 sequence (Q99640 whole entry): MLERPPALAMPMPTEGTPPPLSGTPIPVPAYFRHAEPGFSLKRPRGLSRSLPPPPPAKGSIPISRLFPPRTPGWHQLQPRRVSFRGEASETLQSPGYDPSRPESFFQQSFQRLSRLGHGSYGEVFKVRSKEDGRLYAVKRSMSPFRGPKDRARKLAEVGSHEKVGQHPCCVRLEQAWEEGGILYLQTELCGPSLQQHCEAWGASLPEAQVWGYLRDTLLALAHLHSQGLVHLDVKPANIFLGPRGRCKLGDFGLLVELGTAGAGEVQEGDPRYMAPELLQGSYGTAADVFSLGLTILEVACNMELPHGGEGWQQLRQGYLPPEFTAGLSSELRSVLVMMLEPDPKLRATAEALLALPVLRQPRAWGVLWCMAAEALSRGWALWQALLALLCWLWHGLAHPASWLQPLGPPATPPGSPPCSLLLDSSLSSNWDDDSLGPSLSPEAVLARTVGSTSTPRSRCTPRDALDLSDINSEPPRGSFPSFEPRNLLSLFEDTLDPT

Assay [5] has as its target Serine/threonine-protein kinase/endoribonuclease IRE2 (Homo sapiens, UniProt Q76MJ5).
Assay [6] concerns the target RAC-alpha serine/threonine-protein kinase (Homo sapiens, UniProt P31749).
Assay [7] has as its target Tyrosine-protein kinase ABL2 (Homo sapiens, UniProt P42684).
The target in assay [8] is T3, Glycogen phosphorylase, brain form (Homo sapiens, UniProt P11216).
T3 sequence (P11216 whole entry): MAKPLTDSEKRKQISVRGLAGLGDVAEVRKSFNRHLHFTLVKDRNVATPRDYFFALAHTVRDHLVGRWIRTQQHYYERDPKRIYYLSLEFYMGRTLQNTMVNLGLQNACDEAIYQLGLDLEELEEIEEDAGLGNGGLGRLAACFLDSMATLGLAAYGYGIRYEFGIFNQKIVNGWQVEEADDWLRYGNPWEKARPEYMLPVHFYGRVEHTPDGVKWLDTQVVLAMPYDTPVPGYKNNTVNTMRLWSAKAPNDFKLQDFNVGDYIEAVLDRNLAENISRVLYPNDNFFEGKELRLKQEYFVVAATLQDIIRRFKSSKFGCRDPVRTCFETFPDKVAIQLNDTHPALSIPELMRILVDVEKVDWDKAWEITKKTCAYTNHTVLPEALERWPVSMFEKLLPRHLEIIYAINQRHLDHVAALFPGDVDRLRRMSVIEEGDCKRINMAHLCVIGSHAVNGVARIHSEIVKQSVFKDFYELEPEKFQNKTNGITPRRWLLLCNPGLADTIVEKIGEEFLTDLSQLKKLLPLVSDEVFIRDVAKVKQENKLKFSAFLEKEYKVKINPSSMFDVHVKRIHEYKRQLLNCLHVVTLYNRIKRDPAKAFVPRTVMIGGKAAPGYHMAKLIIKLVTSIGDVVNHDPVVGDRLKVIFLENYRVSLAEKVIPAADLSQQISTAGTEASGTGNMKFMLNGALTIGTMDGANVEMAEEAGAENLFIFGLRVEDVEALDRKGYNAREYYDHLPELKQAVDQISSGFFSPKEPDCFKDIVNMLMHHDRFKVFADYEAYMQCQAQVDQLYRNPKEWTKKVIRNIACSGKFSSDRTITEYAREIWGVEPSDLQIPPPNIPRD

Assay [9] concerns the target Rho-associated protein kinase 2 (Homo sapiens, UniProt O75116).
The target of another assay is DNA topoisomerase 2-beta (Homo sapiens, UniProt Q02880).
The target in assay [10] is T4, Mitogen-activated protein kinase kinase kinase 2 (Homo sapiens, UniProt Q9Y2U5).
T4 sequence (Q9Y2U5 whole entry): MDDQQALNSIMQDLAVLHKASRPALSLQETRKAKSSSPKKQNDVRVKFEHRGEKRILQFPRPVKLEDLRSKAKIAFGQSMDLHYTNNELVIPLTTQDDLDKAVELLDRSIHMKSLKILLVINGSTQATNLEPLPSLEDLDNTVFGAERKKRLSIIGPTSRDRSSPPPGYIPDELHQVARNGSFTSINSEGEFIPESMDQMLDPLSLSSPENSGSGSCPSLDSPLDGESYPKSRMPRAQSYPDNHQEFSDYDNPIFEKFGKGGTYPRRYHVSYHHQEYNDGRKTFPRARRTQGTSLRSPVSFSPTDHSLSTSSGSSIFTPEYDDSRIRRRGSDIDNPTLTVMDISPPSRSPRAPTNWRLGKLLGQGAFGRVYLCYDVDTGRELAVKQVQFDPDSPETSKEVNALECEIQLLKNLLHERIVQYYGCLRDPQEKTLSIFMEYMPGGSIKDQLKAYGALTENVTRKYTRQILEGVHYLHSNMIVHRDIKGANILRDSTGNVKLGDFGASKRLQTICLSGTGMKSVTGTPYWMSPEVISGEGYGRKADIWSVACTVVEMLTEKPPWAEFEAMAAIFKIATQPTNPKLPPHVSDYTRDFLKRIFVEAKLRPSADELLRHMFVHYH

The target in assay [11] is ATP-dependent RNA helicase DDX3X (Homo sapiens, UniProt O00571).
Sequence of ATP-dependent RNA helicase DDX3X (O00571 whole entry): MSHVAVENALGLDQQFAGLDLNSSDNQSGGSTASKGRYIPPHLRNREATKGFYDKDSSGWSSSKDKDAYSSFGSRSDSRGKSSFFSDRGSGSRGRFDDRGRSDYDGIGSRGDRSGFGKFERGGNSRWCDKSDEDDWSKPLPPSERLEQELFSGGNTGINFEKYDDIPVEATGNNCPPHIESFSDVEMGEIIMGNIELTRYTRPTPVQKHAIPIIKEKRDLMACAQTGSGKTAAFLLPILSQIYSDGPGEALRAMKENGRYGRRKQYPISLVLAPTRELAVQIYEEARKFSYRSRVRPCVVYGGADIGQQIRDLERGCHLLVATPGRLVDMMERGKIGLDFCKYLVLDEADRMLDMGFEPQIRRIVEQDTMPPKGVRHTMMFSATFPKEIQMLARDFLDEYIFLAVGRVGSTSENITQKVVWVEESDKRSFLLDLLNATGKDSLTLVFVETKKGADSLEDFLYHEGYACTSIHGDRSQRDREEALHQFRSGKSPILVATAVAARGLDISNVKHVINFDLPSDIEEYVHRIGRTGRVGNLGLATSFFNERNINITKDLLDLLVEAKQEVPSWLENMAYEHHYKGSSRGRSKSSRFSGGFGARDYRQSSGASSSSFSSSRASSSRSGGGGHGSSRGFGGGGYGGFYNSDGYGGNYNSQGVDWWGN
In assay [12] the target is Bone morphogenetic protein receptor type-1B (Homo sapiens, UniProt O00238).
Sequence of Bone morphogenetic protein receptor type-1B (O00238 whole entry): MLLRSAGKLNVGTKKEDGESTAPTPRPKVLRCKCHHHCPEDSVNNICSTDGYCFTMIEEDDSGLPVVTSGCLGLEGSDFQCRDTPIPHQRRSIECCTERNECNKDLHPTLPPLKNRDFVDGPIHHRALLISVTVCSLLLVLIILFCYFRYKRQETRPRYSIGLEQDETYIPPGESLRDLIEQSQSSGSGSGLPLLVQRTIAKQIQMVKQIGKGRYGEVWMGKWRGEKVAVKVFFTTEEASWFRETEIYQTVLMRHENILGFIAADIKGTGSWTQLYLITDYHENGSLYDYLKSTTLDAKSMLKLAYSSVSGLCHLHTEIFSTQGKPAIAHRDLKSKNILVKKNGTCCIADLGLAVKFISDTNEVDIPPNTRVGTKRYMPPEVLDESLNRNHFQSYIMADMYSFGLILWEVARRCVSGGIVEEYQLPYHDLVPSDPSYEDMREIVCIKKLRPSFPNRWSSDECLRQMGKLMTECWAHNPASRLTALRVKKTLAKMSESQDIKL
In assay [13] the target is Mitogen-activated protein kinase kinase kinase kinase 1 (Homo sapiens, UniProt Q92918).
Sequence of Mitogen-activated protein kinase kinase kinase kinase 1 (Q92918 whole entry): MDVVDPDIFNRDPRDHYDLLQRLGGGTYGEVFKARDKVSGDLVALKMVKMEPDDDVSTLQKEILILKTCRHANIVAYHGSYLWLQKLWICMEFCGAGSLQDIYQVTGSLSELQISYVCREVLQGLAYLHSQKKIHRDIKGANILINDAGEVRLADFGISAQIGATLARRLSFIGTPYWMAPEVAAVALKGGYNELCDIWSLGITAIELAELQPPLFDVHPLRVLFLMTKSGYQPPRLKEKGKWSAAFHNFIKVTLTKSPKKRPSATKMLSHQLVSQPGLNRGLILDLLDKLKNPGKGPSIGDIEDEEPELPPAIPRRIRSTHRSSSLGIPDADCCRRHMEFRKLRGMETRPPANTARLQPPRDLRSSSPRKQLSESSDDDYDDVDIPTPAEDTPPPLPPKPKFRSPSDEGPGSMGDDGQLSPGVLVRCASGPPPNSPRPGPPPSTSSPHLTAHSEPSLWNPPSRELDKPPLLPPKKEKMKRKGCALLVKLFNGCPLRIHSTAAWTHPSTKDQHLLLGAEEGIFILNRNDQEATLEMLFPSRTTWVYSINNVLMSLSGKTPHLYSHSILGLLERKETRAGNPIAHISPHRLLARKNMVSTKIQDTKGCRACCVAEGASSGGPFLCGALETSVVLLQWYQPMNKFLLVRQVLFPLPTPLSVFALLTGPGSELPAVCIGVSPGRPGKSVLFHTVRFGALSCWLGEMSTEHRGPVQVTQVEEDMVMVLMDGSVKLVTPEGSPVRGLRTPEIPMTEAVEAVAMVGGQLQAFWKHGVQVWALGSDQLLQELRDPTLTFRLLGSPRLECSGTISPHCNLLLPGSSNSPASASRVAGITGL

Each structure is given as a SMILES string. Calls of active or inactive are those of the source.
Note: in the data inactive means no Kd found up to 30 µM.

Sequence of Tyrosine-protein kinase ABL2 (P42684 whole entry): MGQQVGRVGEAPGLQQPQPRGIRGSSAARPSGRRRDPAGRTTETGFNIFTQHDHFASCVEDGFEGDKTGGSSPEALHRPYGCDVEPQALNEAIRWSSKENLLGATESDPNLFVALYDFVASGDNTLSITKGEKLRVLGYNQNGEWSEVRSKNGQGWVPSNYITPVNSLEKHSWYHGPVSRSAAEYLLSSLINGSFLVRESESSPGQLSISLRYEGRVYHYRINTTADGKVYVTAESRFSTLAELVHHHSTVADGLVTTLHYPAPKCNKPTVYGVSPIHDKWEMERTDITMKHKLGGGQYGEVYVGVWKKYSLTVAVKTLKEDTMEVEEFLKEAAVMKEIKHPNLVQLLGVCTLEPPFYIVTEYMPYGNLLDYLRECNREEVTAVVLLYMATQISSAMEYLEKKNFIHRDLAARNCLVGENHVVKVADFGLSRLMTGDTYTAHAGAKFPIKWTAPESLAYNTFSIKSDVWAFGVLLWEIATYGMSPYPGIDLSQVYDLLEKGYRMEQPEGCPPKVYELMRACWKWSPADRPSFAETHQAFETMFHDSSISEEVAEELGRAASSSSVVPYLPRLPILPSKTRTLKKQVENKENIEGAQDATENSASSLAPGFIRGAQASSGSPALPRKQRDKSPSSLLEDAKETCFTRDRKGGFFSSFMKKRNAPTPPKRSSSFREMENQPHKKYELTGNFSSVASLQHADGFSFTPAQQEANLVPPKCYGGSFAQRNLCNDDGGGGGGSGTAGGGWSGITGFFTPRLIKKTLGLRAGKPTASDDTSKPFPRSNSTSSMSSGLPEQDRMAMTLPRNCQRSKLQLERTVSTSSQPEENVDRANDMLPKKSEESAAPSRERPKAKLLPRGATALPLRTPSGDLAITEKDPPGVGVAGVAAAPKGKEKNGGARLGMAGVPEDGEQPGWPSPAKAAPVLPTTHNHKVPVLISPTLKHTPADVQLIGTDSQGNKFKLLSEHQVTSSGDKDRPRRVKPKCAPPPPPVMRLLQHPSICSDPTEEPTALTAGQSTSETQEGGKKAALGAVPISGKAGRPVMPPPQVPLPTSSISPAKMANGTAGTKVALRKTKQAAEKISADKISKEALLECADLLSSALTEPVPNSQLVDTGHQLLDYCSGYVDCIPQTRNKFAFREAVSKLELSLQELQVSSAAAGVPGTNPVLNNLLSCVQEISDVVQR
Sequence of Serine/threonine-protein kinase/endoribonuclease IRE2 (Q76MJ5 whole entry): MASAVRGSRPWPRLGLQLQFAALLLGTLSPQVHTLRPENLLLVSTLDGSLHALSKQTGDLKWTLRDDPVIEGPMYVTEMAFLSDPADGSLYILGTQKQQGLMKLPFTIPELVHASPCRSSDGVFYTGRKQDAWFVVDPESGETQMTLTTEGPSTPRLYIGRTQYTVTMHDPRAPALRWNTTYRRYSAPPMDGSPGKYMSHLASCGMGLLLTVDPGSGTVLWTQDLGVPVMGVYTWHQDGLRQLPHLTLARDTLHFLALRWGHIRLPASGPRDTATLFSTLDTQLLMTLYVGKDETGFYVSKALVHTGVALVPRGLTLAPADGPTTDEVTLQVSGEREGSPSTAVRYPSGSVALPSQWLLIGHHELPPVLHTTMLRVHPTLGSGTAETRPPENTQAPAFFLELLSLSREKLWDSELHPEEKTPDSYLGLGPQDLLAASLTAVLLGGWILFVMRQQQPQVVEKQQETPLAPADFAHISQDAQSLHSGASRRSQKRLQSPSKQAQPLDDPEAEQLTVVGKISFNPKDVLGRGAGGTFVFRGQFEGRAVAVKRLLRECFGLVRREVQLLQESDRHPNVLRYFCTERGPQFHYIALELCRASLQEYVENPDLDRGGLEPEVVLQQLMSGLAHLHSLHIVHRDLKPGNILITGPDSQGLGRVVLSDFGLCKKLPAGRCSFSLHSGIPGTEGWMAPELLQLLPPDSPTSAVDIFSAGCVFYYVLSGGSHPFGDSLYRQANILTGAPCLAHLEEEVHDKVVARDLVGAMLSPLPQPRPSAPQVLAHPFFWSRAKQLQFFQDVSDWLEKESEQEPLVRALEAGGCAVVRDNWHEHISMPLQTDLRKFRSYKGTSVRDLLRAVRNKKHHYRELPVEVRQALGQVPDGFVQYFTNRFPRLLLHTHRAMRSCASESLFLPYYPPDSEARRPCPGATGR
Sequence of RAC-alpha serine/threonine-protein kinase (P31749 whole entry): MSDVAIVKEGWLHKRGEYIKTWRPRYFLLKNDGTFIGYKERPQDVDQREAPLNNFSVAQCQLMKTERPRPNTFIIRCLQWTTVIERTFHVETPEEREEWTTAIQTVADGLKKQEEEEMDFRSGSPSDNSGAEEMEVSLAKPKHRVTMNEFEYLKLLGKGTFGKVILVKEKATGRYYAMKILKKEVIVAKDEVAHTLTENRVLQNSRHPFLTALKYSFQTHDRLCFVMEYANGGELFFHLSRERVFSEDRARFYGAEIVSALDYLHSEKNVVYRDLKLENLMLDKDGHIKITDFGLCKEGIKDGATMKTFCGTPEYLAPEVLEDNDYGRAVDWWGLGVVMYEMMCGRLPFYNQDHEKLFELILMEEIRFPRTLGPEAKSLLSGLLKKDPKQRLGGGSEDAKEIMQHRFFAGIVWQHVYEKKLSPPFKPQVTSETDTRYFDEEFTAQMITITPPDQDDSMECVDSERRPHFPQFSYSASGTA
Sequence of Casein kinase I isoform gamma-1 (Q9HCP0 whole entry, canonical isoform): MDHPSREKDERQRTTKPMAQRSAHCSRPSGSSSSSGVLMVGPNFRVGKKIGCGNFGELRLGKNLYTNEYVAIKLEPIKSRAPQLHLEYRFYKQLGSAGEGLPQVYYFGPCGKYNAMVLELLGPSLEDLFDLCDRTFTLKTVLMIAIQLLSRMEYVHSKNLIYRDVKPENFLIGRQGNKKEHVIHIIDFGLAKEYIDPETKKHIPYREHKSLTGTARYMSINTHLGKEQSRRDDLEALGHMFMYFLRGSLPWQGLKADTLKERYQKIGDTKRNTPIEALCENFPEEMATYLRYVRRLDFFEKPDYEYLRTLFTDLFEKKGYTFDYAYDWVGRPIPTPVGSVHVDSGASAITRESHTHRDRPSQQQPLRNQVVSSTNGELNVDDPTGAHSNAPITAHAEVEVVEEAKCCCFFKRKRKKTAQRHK

On to `O=c1[nH]ccc2cc(OC3CCNCC3)ccc12` [SAR-407899 FREE BASE], for which the Kd in assay [1], in assay [2], in assay [3], in assay [4], in assay [5] and in assay [6] was > 30 µM (inactive) in each case. In addition, the Kd in assay [7] was > 30 µM (inactive); in assay [8] it was > 30 µM (inactive); in [9], 0.016 µM (active); at DNA topoisomerase 2-beta it was > 30 µM (inactive); in [10] it was > 30 µM (inactive); in assay [11], > 30 µM (inactive). Moreover, the Kd in [12] and in [13] was > 30 µM (inactive) throughout.

`Cn1cc(-c2cnn3c(N)c(Br)c([C@@H]4CCCNC4)nc23)cn1` [SCH-900776]: the Kd in [1], in [2], in assay [3], in [4], in [5] and in [6] was > 30 µM (inactive) throughout. In addition, the Kd (in [7]; in [8]; in [9]; at DNA topoisomerase 2-beta; in [10]; in assay [11]) was > 30 µM (inactive) each time. The Kd in assay [12] and in assay [13] was > 30 µM (inactive) in each case.

Take `CO[C@H]1C[C@@H]2CC[C@@H](C)[C@@](O)(O2)C(=O)C(=O)N2CCCC[C@H]2C(=O)O[C@H]([C@H](C)C[C@@H]2CC[C@@H](O)[C@H](OC)C2)CC(=O)[C@H](C)/C=C(\C)[C@@H](O)[C@@H](OC)C(=O)[C@H](C)C[C@H](C)/C=C/C=C/C=C/1C` [SIROLIMUS]: the Kd in assay [1], in [2], in assay [3], in assay [4], in assay [5] and in assay [6] was > 30 µM (inactive) each time. Also, the Kd (in assay [7]; in assay [8]; in [9]; on DNA topoisomerase 2-beta; in assay [10]; in assay [11]) was > 30 µM (inactive) each time. Besides, the Kd in [12] and in [13] was > 30 µM (inactive) each time.

Take `CCS(=O)(=O)c1cccc(-c2cc(C(=O)NC3CCN(C)CC3)c(C)c3[nH]c4ncc(C)cc4c23)c1` [TAK-901]: the Kd in [1], in assay [2], in [3], in [4], in [5] and in assay [6] was > 30 µM (inactive) throughout. In addition, the Kd is 0.422 µM (active) in assay [7]; > 30 µM (inactive) in assay [8]; > 30 µM (inactive) in [9]; > 30 µM (inactive) at DNA topoisomerase 2-beta; > 30 µM (inactive) in assay [10]; > 30 µM (inactive) in assay [11]. In addition, the Kd in assay [12] and in assay [13] was > 30 µM (inactive) throughout.

Take `COc1cc2c(Nc3ccc(Cl)c(Cl)c3F)ncnc2cc1OC[C@@H]1C[C@@H]2CN(C)C[C@@H]2C1` [TESEVATINIB]: the Kd in assay [1], in [2], in assay [3], in assay [4], in assay [5] and in assay [6] was > 30 µM (inactive) each time. Moreover, the Kd was 0.628 µM (active) in assay [7]; > 30 µM (inactive) in assay [8]; > 30 µM (inactive) in assay [9]; > 30 µM (inactive) on DNA topoisomerase 2-beta; > 30 µM (inactive) in assay [10]; > 30 µM (inactive) in [11]. Moreover, the Kd in assay [12] and in assay [13] was > 30 µM (inactive) in each case.

With `O=C(Cc1ccc(-c2ccc(OCCN3CCOCC3)cc2)cn1)NCc1ccccc1` [TIRBANIBULIN], the Kd in assay [1], in [2], in assay [3], in assay [4], in assay [5] and in assay [6] was > 30 µM (inactive) in each case. Also, the Kd (in [7]; in assay [8]; in assay [9]; on DNA topoisomerase 2-beta; in assay [10]; in assay [11]) was > 30 µM (inactive) each time. Moreover, the Kd in assay [12] and in [13] was > 30 µM (inactive) each time.

Regarding `O=C1NC(=O)[C@@H](c2cn3c4c(cccc24)CCC3)[C@@H]1c1c[nH]c2ccccc12` [TIVANTINIB], the Kd in assay [1], in assay [2], in assay [3], in assay [4], in assay [5] and in assay [6] was > 30 µM (inactive) each time. In addition, the Kd (in assay [7]; in [8]; in assay [9]; at DNA topoisomerase 2-beta; in [10]; in assay [11]) was > 30 µM (inactive) each time. Moreover, the Kd in assay [12] and in assay [13] was > 30 µM (inactive) in each case.
